Experimental data: patent US11230547B2, “Purine inhibitors of human phosphatidylinositol 3-kinase delta” (Merck Sharp & Dohme Corp., priority 2017, dated 2022)

Legend:
[1] = target: PI3Kdelta (Homo sapiens (Human), UniProt O00329); experiment: HTRF PI3K biochemical assay, delta isoform; conditions: 0.3 nM enzyme, 100 uM ATP, 5 uM PIP2, form screened per table
Excerpt: (§1) HTRF PI3K Biochemical Assay to Measure Intrinsic Potency of Compound Inhibitors
(§2) The PI3-Kinase biochemical assays were developed to measure the intrinsic potency and compound dependent inhibition of the alpha, beta, delta, and gamma PI3K isoform enzymes. This assay was developed and further optimized from a kit produced by Upstate (Millipore catalog #33-047) (Millipore Sigma, Billerica Mass., USA) and has been configured for high throughput screening (HTS) and structure-activity relationship (SAR) screening. Briefly, this procedure exploits the exquisite specificity and high affinity binding of […] phosphatidyl(3,4,5)triphosphate (PIP3) to the GRP1 pleckstrin homology (PH) domain to generate the signal. In the absence of PIP3, an HTRF (Homogeneous Time-Resolved Fluorescence energy transfer) complex is formed consisting of europium (u)-labeled anti-GST, GST tagged GRP1-PH domain, biotin-PIP3 (biotinylated-PIP3) and streptavidin conjugated APC (Allophycocyanin). The native PIP3 produced by PI3-Kinase activity disrupts in a competitive manner the biotin-PIP3 from the pleckstrin homology (PH) domain, resulting in the loss of energy transfer (HTRF complex) and a decrease in the signal. The format of this assay is the same for all 4 isoforms of PI3K; the differences lie in the concentration of enzyme used to achieve robust assay window. The alpha, beta, and delta assays are run at 0.5, 1, and 0.3 nM enzymes and the gamma assay is run at 5 nM enzyme. The ATP concentration is 100 uM in the alpha, beta, and delta assays and 50 uM adenosine triphosphate (ATP) in the gamma assay. All reactions are run at 5 uM PIP2.
(§3) Compounds are serially diluted (3-fold in 100% DMSO) across a 384-well polypropylene source plated from column 3 to column 12 and column 13 to column 22, to yield 10 concentration dose response for each test compound. Columns 1, 2, 23 and 24 contain either only DMSO or pharmacological known control inhibitor. Once titrations are made, 2.5 nL of the compounds on 384 well plates are reformatted and transferred by acoustic dispense in quadruplicates to a 1536 assay plate (Greiner) to assay across all four PI3K isoform enzymes.
(§4) The PI3-Kinase biochemical assay was optimized using the HTRF kit provided by Upstate (Millipore). The assay kit contains six reagents: 1) 4× Reaction Buffer; 2) native PIP2 (substrate); 3) Stop (EDTA); 4) Detection Mix A (Streptavidin-APC); 5) Detection Mix B (Eu-labeled Anti-GST plus GST-tagged PH-domain); 6) Detection Mix C. In addition, the following items were obtained or purchased; PI3Kinase (catalog #'s alpha 14-602, beta 14-603, gamma 14-558 and delta 14-604 from Upstate Biotechnology now EMD Millipore, Mahopac, N.Y., USA), dithiothreitol (Sigma-Aldrich Corp. (St. Louis, Mo., USA) Catalog #D-5545), Adenosine-5′ triphosphate (InVitrogen (Waltham, Mass., USA), Cat#AS001A), native PIP3 (PI(3,4,5)P3, diC8, H^+, CELLSIGNALS, INC., (Columbus, Ohio, USA) Cat #907) DMSO ((Sigma-Aldrich Corp. (St. Louis, Mo., USA) Catalog #472301).
(§5) PI3Kinase Reaction Buffer is prepared by dilution the stock 1:4 with de-ionized water. DTT (DL-Dithiothreitol), phosphatidylinositol 4,5-bisphosphate (PIP2) and Biotin-PIP3 were added to 1536 assay plate at a final concentration of 5 mM, […] and 25 nM on the day of use. Enzyme addition and compound pre-incubation are initiated by the addition of 1.25 ul of PI3K (at twice its final concentration) in the 1× reaction buffer to all wells using a BioRaptr™ (Beckman Coulter, Waltham, Mass. USA). Plates are incubated at room temperature for 15 minutes. Reactions are initiated by addition of 1.25 ul of 2× substrate solution (PIP2 and ATP in 1× reaction buffer) using BioRaptr™. Plates are incubated in humidified chamber at room temperature for one hour. Reactions are quenched by addition of 0.625 uL of stop solution to all wells using the BioRaptr™. […]

[2] = target: PI3Kalpha (Homo sapiens (Human), UniProt P42336); experiment: HTRF PI3K biochemical assay, alpha isoform (selectivity versus delta); conditions: relative ratio PI3K-alpha IC50 value / PI3K-delta IC50 value
PI3Kalpha, sequence (P42336 whole entry, canonical isoform): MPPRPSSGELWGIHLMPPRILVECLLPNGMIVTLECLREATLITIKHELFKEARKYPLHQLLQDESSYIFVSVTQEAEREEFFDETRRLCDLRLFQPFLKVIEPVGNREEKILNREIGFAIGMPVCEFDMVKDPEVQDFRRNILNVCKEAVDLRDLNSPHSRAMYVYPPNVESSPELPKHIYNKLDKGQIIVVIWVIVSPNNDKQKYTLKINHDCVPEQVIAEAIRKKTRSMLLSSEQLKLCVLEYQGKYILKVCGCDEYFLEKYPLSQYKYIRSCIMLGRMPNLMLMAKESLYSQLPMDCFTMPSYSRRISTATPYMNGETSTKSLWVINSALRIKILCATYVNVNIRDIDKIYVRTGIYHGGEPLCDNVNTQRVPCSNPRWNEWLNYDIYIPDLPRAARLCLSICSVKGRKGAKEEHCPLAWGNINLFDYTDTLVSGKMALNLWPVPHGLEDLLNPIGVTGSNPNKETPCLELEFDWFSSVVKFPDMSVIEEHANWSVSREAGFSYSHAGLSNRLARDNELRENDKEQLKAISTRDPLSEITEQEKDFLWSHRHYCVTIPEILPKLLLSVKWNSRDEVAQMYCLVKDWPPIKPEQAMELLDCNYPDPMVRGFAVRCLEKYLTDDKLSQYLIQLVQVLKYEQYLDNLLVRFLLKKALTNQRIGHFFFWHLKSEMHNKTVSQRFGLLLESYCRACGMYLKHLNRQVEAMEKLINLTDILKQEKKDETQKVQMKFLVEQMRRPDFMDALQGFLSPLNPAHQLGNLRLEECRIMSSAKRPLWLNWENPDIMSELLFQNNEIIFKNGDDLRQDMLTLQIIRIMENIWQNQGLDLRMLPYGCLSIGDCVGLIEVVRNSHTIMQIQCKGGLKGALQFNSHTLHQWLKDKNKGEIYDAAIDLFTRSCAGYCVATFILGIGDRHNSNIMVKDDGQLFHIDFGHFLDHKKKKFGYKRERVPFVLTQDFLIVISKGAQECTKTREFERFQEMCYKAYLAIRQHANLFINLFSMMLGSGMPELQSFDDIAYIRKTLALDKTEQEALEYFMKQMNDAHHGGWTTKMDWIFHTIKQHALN
PI3Kalpha, sequence (P27986 whole entry partner, canonical isoform): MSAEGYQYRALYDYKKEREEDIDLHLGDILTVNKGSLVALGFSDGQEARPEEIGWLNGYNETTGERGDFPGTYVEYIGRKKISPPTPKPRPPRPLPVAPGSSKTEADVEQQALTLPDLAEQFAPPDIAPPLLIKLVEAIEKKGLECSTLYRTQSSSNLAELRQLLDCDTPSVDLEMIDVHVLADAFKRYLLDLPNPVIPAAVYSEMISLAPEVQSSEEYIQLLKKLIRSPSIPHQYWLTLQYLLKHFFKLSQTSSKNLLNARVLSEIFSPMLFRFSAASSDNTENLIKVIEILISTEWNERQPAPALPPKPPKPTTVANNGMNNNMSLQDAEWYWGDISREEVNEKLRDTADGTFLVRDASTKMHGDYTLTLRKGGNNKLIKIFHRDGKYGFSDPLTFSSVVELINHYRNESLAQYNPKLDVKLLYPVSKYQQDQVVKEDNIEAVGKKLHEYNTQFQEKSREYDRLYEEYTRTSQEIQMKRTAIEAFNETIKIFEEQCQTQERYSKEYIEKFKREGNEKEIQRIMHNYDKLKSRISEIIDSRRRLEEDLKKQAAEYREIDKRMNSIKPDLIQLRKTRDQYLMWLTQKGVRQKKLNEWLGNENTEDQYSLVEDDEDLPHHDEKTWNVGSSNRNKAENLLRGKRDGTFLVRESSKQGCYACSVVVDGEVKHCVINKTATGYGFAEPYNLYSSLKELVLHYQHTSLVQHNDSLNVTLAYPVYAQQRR
Excerpt: as §1, §2, §3, §4, §5

PI3Kdelta, sequence (O00329 whole entry, canonical isoform): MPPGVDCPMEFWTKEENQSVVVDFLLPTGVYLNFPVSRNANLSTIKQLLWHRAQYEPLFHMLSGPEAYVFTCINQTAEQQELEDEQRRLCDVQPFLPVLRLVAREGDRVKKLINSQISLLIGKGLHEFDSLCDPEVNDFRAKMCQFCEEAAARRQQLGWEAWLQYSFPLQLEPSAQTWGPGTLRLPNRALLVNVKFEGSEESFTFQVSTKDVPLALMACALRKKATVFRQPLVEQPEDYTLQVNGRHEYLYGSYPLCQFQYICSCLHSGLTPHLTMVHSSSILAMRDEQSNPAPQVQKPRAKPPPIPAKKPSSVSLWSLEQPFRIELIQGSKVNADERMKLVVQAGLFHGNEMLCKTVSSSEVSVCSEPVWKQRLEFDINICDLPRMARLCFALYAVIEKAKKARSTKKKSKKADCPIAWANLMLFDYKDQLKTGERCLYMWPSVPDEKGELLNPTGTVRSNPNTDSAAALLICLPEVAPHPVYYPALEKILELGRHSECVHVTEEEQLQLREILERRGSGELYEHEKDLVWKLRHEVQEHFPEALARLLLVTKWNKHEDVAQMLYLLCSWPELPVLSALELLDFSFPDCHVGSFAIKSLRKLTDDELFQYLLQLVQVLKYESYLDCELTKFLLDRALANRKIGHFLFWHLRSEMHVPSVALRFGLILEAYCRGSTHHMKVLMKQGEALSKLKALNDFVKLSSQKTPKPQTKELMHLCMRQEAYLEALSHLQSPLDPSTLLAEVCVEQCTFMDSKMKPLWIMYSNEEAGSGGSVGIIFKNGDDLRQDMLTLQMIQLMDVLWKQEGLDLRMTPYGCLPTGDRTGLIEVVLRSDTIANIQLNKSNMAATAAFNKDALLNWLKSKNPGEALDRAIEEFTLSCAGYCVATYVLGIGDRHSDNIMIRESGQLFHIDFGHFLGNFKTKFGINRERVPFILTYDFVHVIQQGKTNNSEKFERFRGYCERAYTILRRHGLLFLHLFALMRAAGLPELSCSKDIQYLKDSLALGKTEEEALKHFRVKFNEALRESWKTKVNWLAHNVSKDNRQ
PI3Kdelta, sequence (P27986 whole entry partner, canonical isoform): as the sequence (P27986 whole entry partner, canonical isoform) above

Row | Compound | IC50 [1] [nM] | Selectivity versus PI3Kalpha [2]
1 | Cn1cc(-c2ncc(C#N)c(N3CC4C[C@H]3CN4c3cccc(C#N)c3)n2)cn1 (stereo in doubt) [Compound 1-1, 4-[(1S,4R)-5-(3-cyanophenyl)-2,5-diazabicyclo[2.2.1]hept-2-yl]-2-(1-methyl-1H-pyrazol-4-yl)pyrimidine-5-carbonitrile] | 69 | >10
2 | N#Cc1cnc(-c2cnn3ccccc23)nc1N1C[C@@H]2CC1CN2c1cccc(F)c1 (stereo in doubt) [Compound 1-2, 4-[(1R,4S)-5-(3-fluorophenyl)-2,5-diazabicyclo[2.2.1]hept-2-yl]-2-pyrazolo[1,5-a]pyridin-3-ylpyrimidine-5-carbonitrile] | 51 | >10
3 | N#Cc1cnc(N2Cc3cn[nH]c3C2)nc1N1CC2C[C@H]1CN2c1cccc(F)c1 (stereo in doubt) [Compound 1-3, 2-(4,6-dihydropyrrolo[3,4-c]pyrazol-5(1H)-yl)-4-[(1S,4R)-5-(3-fluorophenyl)-2,5-diazabicyclo[2.2.1]hept-2-yl]pyrimidine-5-carbonitrile] | 86 | >10
4 | Cn1cc(-c2ncc(C#N)c(N3CC4C[C@H]3CN4c3ccc(C(F)F)nc3)n2)cn1 (stereo in doubt) [Compound 1-4, 4-{(1S,4R)-5-[6-(difluoromethyl)pyridin-3-yl]-2,5-diazabicyclo[2.2.1]hept-2-yl}-2-(1-methyl-1H-pyrazol-4-yl)pyrimidine-5-carbonitrile] | 540 | >10
5 | Cn1cc(-c2ncc(C#N)c(N3CC4C[C@H]3CN4c3cccc(C(C)(C)O)c3)n2)cn1 (stereo in doubt) [Compound 1-5, 4-{(1S,4R)-5-[3-(1-hydroxy-1-methylethyl)phenyl]-2,5-diazabicyclo[2.2.1]hept-2-yl}-2-(1-methyl-1H-pyrazol-4-yl)pyrimidine-5-carbonitrile] | 220 | >10
6 | Cn1cc(-c2ncc(C#N)c(N3CC4C[C@H]3CN4c3cccnc3)n2)cn1 (stereo in doubt) [Compound 1-6, 2-(1-methyl-1H-pyrazol-4-yl)-4-[(1S,4R)-5-pyridin-3-yl-2,5-diazabicyclo[2.2.1]hept-2-yl]pyrimidine-5-carbonitrile] | 110 | >10
7 | Cn1cc(-c2ncc(C#N)c(N3CC4C[C@H]3CN4c3cccc(OCCF)c3)n2)cn1 (stereo in doubt) [Compound 1-8, 4-{(1S,4R)-5-[3-(2-fluoroethoxy)phenyl]-2,5-diazabicyclo[2.2.1]hept-2-yl}-2-(1-methyl-1H-pyrazol-4-yl)pyrimidine-5-carbonitrile] | 79 | >10
8 | Cn1cc(-c2ncc(C#N)c(N3CC4C[C@H]3CN4c3cccc(-n4cccc4)c3)n2)cn1 (stereo in doubt) [Compound 1-9, 2-(1-methyl-1H-pyrazol-4-yl)-4-{(1S,4R)-5-[3-(1H-pyrrol-1-yl)phenyl]-2,5-diazabicyclo[2.2.1]hept-2-yl}pyrimidine-5-carbonitrile] | 90 | >10
9 | Cn1cc(-c2ncc(C#N)c(N3CC4C[C@H]3CN4c3cccc([N+](=O)[O-])c3)n2)cn1 (stereo in doubt) [Compound 1-10, 2-(1-methyl-1H-pyrazol-4-yl)-4-[(1S,4R)-5-(3-nitrophenyl)-2,5-diazabicyclo[2.2.1]hept-2-yl]pyrimidine-5-carbonitrile] | – | >10
10 | Cn1cc(-c2ncc(C#N)c(N3CC4C[C@H]3CN4c3cccc(C4CC4)c3)n2)cn1 (stereo in doubt) [Compound 1-11, 4-[(1S,4R)-5-(3-cyclopropylphenyl)-2,5-diazabicyclo[2.2.1]hept-2-yl]-2-(1-methyl-1H-pyrazol-4-yl)pyrimidine-5-carbonitrile] | 130 | >10
11 | Cn1cc(-c2ncc(C#N)c(N3CC4C[C@H]3CN4c3cccc(C4(C)CC4)c3)n2)cn1 (stereo in doubt) [Compound 1-12, 4-{(1S,4R)-5-[3-(1-methylcyclopropyl)phenyl]-2,5-diazabicyclo[2.2.1]hept-2-yl}-2-(1-methyl-1H-pyrazol-4-yl)pyrimidine-5-carbonitrile] | 410 | >10
12 | CNC(=O)c1cccc(N2C[C@@H]3CC2CN3c2nc(-c3cnn(C)c3)ncc2C#N)c1 (stereo in doubt) [Compound 1-13, 3-{(1R,4S)-5-[5-cyano-2-(1-methyl-1H-pyrazol-4-yl)pyrimidin-4-yl]-2,5-diazabicyclo[2.2.1]hept-2-yl}-N-methylbenzamide] | 97 | >10
13 | COc1cccc(N2C[C@@H]3CC2CN3c2nc(-c3cnn(C)c3)ncc2C#N)c1 (stereo in doubt) [Compound 1-14, 4-[(1S,4R)-5-(3-methoxyphenyl)-2,5-diazabicyclo[2.2.1]hept-2-yl]-2-(1-methyl-1H-pyrazol-4-yl)pyrimidine-5-carbonitrile] | 71 | >10
14 | Cn1cc(-c2ncc(C#N)c(N3CC4C[C@H]3CN4c3cccc(S(C)(=O)=O)c3)n2)cn1 (stereo in doubt) [Compound 1-15, 2-(1-methyl-1H-pyrazol-4-yl)-4-{(1S,4R)-5-[3-(methylsulfonyl)phenyl]-2,5-diazabicyclo[2.2.1]hept-2-yl}pyrimidine-5-carbonitrile] | 27 | >10
15 | N#Cc1cnc(-c2ccnc3[nH]ccc23)nc1N1C[C@@H]2CC1CN2c1cccc(F)c1 (stereo in doubt) [Compound 1-17, 4-[(1R,4S)-5-(3-fluorophenyl)-2,5-diazabicyclo[2.2.1]hept-2-yl]-2-(1H-pyrrolo[2,3-b]pyridin-4-yl)pyrimidine-5-carbonitrile] | 56 | >10
16 | N#Cc1cnc(-c2cnc3[nH]ccc3c2)nc1N1C[C@@H]2CC1CN2c1cccc(F)c1 (stereo in doubt) [Compound 1-18, 4-[(1R,4S)-5-(3-fluorophenyl)-2,5-diazabicyclo[2.2.1]hept-2-yl]-2-(1H-pyrrolo[2,3-b]pyridin-5-yl)pyrimidine-5-carbonitrile] | 920 | 8
17 | Cc1cncc(-c2ncc(C#N)c(N3C[C@@H]4CC3CN4c3cccc(F)c3)n2)c1 (stereo in doubt) [Compound 1-19, 4-[(1R,4S)-5-(3-fluorophenyl)-2,5-diazabicyclo[2.2.1]hept-2-yl]-2-(5-methylpyridin-3-yl)pyrimidine-5-carbonitrile] | 290 | >10
18 | N#Cc1cnc(-c2cccc3[nH]ncc23)nc1N1C[C@@H]2CC1CN2c1cccc(F)c1 (stereo in doubt) [Compound 1-20, 4-[(1R,4S)-5-(3-fluorophenyl)-2,5-diazabicyclo[2.2.1]hept-2-yl]-2-(1H-indazol-4-yl)pyrimidine-5-carbonitrile] | 200 | 9
19 | Cn1cc(-c2ncc(C#N)c(N3C[C@H]4C[C@H]3CN4c3cccc([N+](=O)[O-])c3)n2)cn1 [Compound 1-10, 2-(1-methyl-1H-pyrazol-4-yl)-4-[(1S,4R)-5-(3-nitrophenyl)-2,5-diazabicyclo[2.2.1]hept-2-yl]pyrimidine-5-carbonitrile] | 38 | –
